Results published in US20100029654A1, “CARDIOVASCULAR COMPOSITIONS AND USE OF THE SAME FOR THE TREATMENT OF ALZHEIMER'S DISEASE” (MOUNT SINAI SCHOOL OF MEDICINE, priority 2006, published 2010).
pEC50: −log10 of the molar value. Structures can show the parent of a compound that is named as a salt. Where two headings read alike, the source gives them in different places.

Assays:
Aβ1-40 = Aβ1-40 content in conditioned medium of primary cortico-hippocampal neuron cultures from Tg2576 mice (ELISA; primary and secondary dose-response screening); assay type: cell-based, mouse; conditions: for Ab1-40 (% of ctl) / activity at 100 µM: drug 100 μM; for reduced Aβ1-40: <85% of ctl; for activity at 100 µM / pEC50: Mus musculus; for activity at 100 µM: 24 h, read-out: Ab1-40 (% of ctl); for pEC50: secondary dose-response screening 0.01-100 μM, 24 hours, read-out: EC50 (molar) Aβ1-40
Summary of the method: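 Primary cortico-hippocampal neurons from embryonic Tg2576 mice were plated at 1.0×10^5 cells per well on poly-D-lysine-coated 96-well plates in Neurobasal with 2% B27, 0.5 mM L-glutamine and 1% penicillin-streptomycin. Cultures received drug in 1% DMSO, and Aβ1-40 in the conditioned medium was measured by BioSource ELISA 24 hours after treatment, relative to vehicle controls.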

Aβ1-42 [1] = assay: Aβ1-42 content in conditioned medium of primary cortico-hippocampal neuron cultures from Tg2576 mice (ELISA; primary and secondary dose-response screening); assay type: cell-based, mouse; conditions: for Ab1-42 (% of ctl) / activity at 100 µM: drug 100 μM; for reducing Aβ1-42: <85% of ctl; for activity at 100 µM: Mus musculus, Neuron, 24 h, read-out: Ab1-42 (% of ctl)
Summary of the method: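 Primary cortico-hippocampal neurons from embryonic Tg2576 mouse brain were seeded on poly-D-lysine-coated 96-well plates at 1.0×10^5 cells per well in serum-free Neurobasal medium with 2% B27, 0.5 mM L-glutamine and 1% penicillin-streptomycin. For primary screening, duplicate wells received 100 μM drug (1% DMSO final). Vehicle-treated cultures served as controls, and Aβ1-42 in conditioned medium was measured by commercial ELISA.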

[2] = system: primary cortico-hippocampal neuron cultures
Protocol: (§1) For in vitro treatments drugs available from “The Spectrum Collection” in stocks of 10 mM in DMSO were applied directly to cultures to the desired concentrations (final 1% DMSO); control primary neuron cultures from Tg2576 embryos were treated with vehicle resulting in a final 1% DMSO.
(§2) Cell viability was assessed using a commercial available LDH assay kit according to the manufacture's instruction (Promega).

[3] = system: primary cortico-hippocampal neuron cultures; conditions: Tg2576, mouse, 100 µM
Aβ1-42 [4] = assay: Aβ1-42 content in conditioned medium of primary cortico-hippocampal neuron cultures from Tg2576 mice (ELISA; primary and secondary dose-response screening); assay type: cell-based, mouse; conditions: Mus musculus; for activity at 100 µM: primary screening, drug 100 μM, Tg2576 neuron cultures, table sorted by Aβ1-42, read-out: Ab1-42 (% of ctl); for pEC50: Neuron, read-out: EC50 (molar) Aβ1-42
[5] = system: primary cortico-hippocampal neuron cultures; assay: lactate dehydrogenase (LDH) activity assay in parallel neuron cultures; conditions: for LDH at E-5M % of change: drug at E-5M
Protocol: as §1, §2

[6] = system: primary cortico-hippocampal neuron cultures; assay: MTT in primary screening
[7] = Primary Screening, table sorted by Aβ1-40
[8] = primary screening, Tg2576 neuron cultures, table sorted by Aβ1-42
[9] = primary screening, table sorted by Aβ1-42

Row | Structure (SMILES) | Ab1-40 (% of ctl) (Aβ1-40; [7]) | reduced Aβ1-40 (Aβ1-40; primary screening) | Ab1-42 (% of ctl) (Aβ1-42 [1]; [7]) | reducing Aβ1-42 (Aβ1-42 [1]; primary screening) | activity at 100 µM (Aβ1-40; [8]) | pEC50 (Aβ1-40; Neuron) | activity at 100 µM (Aβ1-42 [4]; 24 h) | LDH (% of ctl) [5, 7] | LDH at E-5M % of change [5] | LDH (% of ctl) [5, 9] | LDH (% of ctl) ([2]; Tg2576, mouse) | MTT (% of ctl) [6, 7] | MTT (% of ctl) [6, 9] | further results
1 | CC(C)NCC(O)COc1cccc2ccccc12.Cl (stereo not drawn) [Propranolol Hydrochloride (−)] | 55.0 % of ctl | reduced Aβ1-40 | 32.8 % of ctl | useful in reducing Aβ1-42 |  |  |  |  |  |  |  |  |  | Ab1-40 (% of ctl) (Aβ1-40; [8]): 55.0 % of ctl; Ab1-42 (% of ctl) (Aβ1-42 [1]; [8]): 32.8 % of ctl; LDH (% of ctl) [2]: 166.6 % of ctl
2 | COc1ccc(Cc2nccc3cc(OC)c(OC)cc23)cc1OC [Papaverine Hydrochloride] | 15.3 % of ctl | reduced Aβ1-40 | 30.1 % of ctl | useful in reducing Aβ1-42 | 15.3% | 4.76 | 30.1% | 118.4 % of ctl | −8.9% | 118.4 % of ctl |  |  |  | MTT (% of ctl) [3]: 92.2 % of ctl; pEC50 (Aβ1-42 [4]; secondary dose-response screening 0.01-100 μM, 24 hours): 4.72
3 | N=C(N)NCCN1CCCCCCC1 [Guanethidine Sulfate] |  |  |  |  |  |  |  |  |  |  | 1057.3 % of ctl |  |  | 
4 | CC[C@H]1[C@@H]2C[C@H]3[C@@H]4N(C)c5ccccc5[C@]45C[C@@H]([C@H]2[C@H]5O)N3[C@@H]1O [Ajmaline] | 114.0 % of ctl |  | 103.3 % of ctl |  | 114% |  | 103% |  |  |  | 97.6 % of ctl | 90.3 % of ctl | 90.3 % of ctl | 
5 | CC(CCc1ccccc1)NCC(O)c1ccc(O)c(C(N)=O)c1 (stereo not shown) [Labetalol Hydrochloride] |  | reduced Aβ1-40 |  |  |  | 8.39 |  | 164.0 % of ctl | −5.0% | 164.0 % of ctl |  | 93.0 % of ctl | 93.0 % of ctl | activity at 100 µM (Aβ1-40; Neuron, Primary Screening, table sorted by Aβ1-40): 84.9%; activity at 100 µM (Aβ1-40; Neuron, primary screening, Tg2576 neuron cultures, table sorted by Aβ1-42): 84.9%; activity at 100 µM (Aβ1-42 [1]; [7]): 106%; activity at 100 µM (Aβ1-42 [1]; [8]): 106%; pEC50 (Aβ1-42 [4]; 24 h, conditioned medium of primary cortico-hippocampal neuron cultures from Tg2576 embryos, 24 hours after treatment, relative to vehicle (1% DMSO) control): 6.14; pEC50 (Aβ1-42 [4]; 24 h, secondary dose-response screening 0.01-100 μM, 24 hours): 6.14
6 | C[C@H]1O[C@@H](O[C@H]2[C@@H](O)C[C@H](O[C@H]3[C@@H](O)C[C@H](O[C@H]4CC[C@@]5(C)[C@H](CC[C@@H]6[C@@H]5CC[C@]5(C)[C@@H](C7=CC(=O)OC7)CC[C@]65O)C4)O[C@@H]3C)O[C@@H]2C)C[C@H](O)[C@@H]1O [Digitoxin] | 68.3 % of ctl | reduced Aβ1-40 | 92.9 % of ctl |  | 68.3% |  | 92.9% | 106.4 % of ctl |  | 106.4 % of ctl |  | 86.0 % of ctl | 86.0 % of ctl | 
